Source: PMC7216583 (Parasites & Vectors, 2020)
Values joined by “and” are separate entries in the source; they are usually repeats but may differ in a detail not shown here. Equal entries are not always repeated. Where two headings read alike, the source gives them in different places.

Legend:
[1] = test system: Toxoplasma gondii RH-2F tachyzoites; test: microbe, parasite or virus in culture; details: 72 h
Tie2 = test system: Tie2; parameters: method as in S-inhibitor; details: ref S-inhibitor; cited from earlier work
Akt2 = test system: Akt2; parameters: method as in S-inhibitor; details: ref S-inhibitor; cited from earlier work
S6K = test system: S6K; parameters: method as in S-inhibitor; details: ref S-inhibitor; cited from earlier work
Akt3 = test system: Akt3; parameters: method as in S-inhibitor; details: ref S-inhibitor; cited from earlier work
Akt1 = test system: Akt1; parameters: method as in S-inhibitor; details: ref S-inhibitor; cited from earlier work
some cell lines = test system: some cell lines; parameters: method as in S-inhibitor; details: ref S-inhibitor; cited from earlier work
VEGFR2 = test system: VEGFR2; parameters: method as in S-inhibitor; details: ref S-inhibitor; cited from earlier work
PDGFRβ = test system: PDGFRβ; parameters: method as in S-inhibitor; details: ref S-inhibitor; cited from earlier work
in vitro = details: human, Host viability (%) mean
VEGFR1 = test system: VEGFR1; parameters: method as in S-inhibitor; details: ref S-inhibitor; cited from earlier work
PDGFRα = test system: PDGFRα; parameters: method as in S-inhibitor; details: ref S-inhibitor; cited from earlier work
p38 MAPK = test system: p38 MAPK; parameters: method as in S-inhibitor; details: ref S-inhibitor; cited from earlier work
CB2 = target: CB2; parameters: method as in S-inhibitor; details: ref S-inhibitor; cited from earlier work
CDK5/p35 = details: read-out: IC50, CDK5/p35; ref S-inhibitor; cited from earlier work
CDK1/cyclin B = test system: CDK1/cyclin B; parameters: method as in S-inhibitor; details: ref S-inhibitor; cited from earlier work
CDK3/Cyclin E = details: read-out: IC50, CDK3/Cyclin E; ref S-inhibitor; cited from earlier work
CDK4/cyclin D1 = details: read-out: IC50, CDK4/Cyclin D1; ref S-inhibitor; cited from earlier work
CDK6/Cyclin D3 = details: read-out: IC50, CDK6/Cyclin D3; ref S-inhibitor; cited from earlier work
BACE1 = test system: BACE1; parameters: method as in S-inhibitor; details: two values given; ref S-inhibitor; cited from earlier work
Aβ secretion = test system: Aβ secretion; parameters: method as in S-inhibitor; details: ref S-inhibitor; read-out: EC50, decrease of Aβ secretion; cited from earlier work
[2] = target: PLK1 (Polo-like kinase 1); parameters: method as in S-inhibitor; details: ref S-inhibitor; cited from earlier work
CDK7 = test system: CDK7; parameters: method as in S-inhibitor; details: ref S-inhibitor; cited from earlier work
CDK5 = test system: CDK5; parameters: method as in S-inhibitor; details: ref S-inhibitor; cited from earlier work
CDK2 = test system: CDK2; parameters: method as in S-inhibitor; details: ref S-inhibitor; cited from earlier work
[3] = target: T. brucei Aurora kinase-1 (TbAUK1); parameters: method as in S-inhibitor; details: ref S-inhibitor; cited from earlier work
Aurora B = test system: Aurora B; parameters: method as in S-inhibitor; details: ref S-inhibitor; cited from earlier work
[4] = test system: HCV NS3-4A serine protease; parameters: method as in S-inhibitor; details: ref S-inhibitor; cited from earlier work
PuSA = test system: PuSA; parameters: method as in S-inhibitor; details: ref S-inhibitor; cited from earlier work
Aminopeptidase N = target: Aminopeptidase N; parameters: method as in S-inhibitor; details: ref S-inhibitor; cited from earlier work
LAP = test system: LAP; parameters: method as in S-inhibitor; details: ref S-inhibitor; cited from earlier work
MEK5 = test system: MEK5; parameters: method as in S-inhibitor; details: ref S-inhibitor; cited from earlier work
[5] = test system: Toxoplasma gondii RH-2F tachyzoites; details: preliminary screen, mean
ATM = test system: ATM; parameters: method as in S-inhibitor; details: ref S-inhibitor; cited from earlier work
c-Met = test system: c-Met; parameters: method as in S-inhibitor; details: ref S-inhibitor; cited from earlier work
Ron = test system: Ron; parameters: method as in S-inhibitor; details: ref S-inhibitor; cited from earlier work
Tyro3 = test system: Tyro3; parameters: method as in S-inhibitor; details: ref S-inhibitor; cited from earlier work
HCV NS5A = test system: HCV NS5A; parameters: method as in S-inhibitor; details: ref S-inhibitor; cited from earlier work
PDPK1 = target: PDPK1; parameters: method as in S-inhibitor; details: ref S-inhibitor; cited from earlier work
CFTR = test system: CFTR; parameters: method as in S-inhibitor; details: ref S-inhibitor; cited from earlier work
hSGLT2 = details: read-out: EC50, hSGLT2; ref S-inhibitor; cited from earlier work
v-Abl = test system: v-Abl; parameters: method as in library vendor description; details: ref library vendor description; cited from earlier work
Flt = test system: Flt; parameters: method as in S-inhibitor; details: ref S-inhibitor; cited from earlier work
HER2/ErbB2 = test system: HER2/ErbB2; parameters: method as in S-inhibitor; details: ref S-inhibitor; cited from earlier work
EGFR = test system: EGFR; parameters: method as in S-inhibitor; details: ref S-inhibitor; cited from earlier work
MEK1 = test system: MEK1; parameters: method as in library vendor description; details: ref library vendor description; cited from earlier work
PI3Kγ = details: read-out: IC50, PI3Kγ; ref S-inhibitor; cited from earlier work
[6] = test system: LPS-induced TNF-α release; parameters: method as in S-inhibitor; details: ref S-inhibitor; cited from earlier work
HSP90β = test system: HSP90β; parameters: method as in S-inhibitor; details: ref S-inhibitor; cited from earlier work
[7] = read-out: Parasite inhibition (%) mean, preliminary screen, mean
[8] = read-out: Parasite inhibition (%) mean

## COc1ccc2cc(-c3[nH]c(-c4ccc([S+](C)[O-])cc4)nc3-c3ccncc3)ccc2c1 (stereo not shown) [Tie2 kinase inhibitor]
[1]; [7]
  inhibition of growth at 5 µM: 13%
Tie2
  IC50: 250 nM

## Clc1ccc(C2(c3ccc(-c4cn[nH]c4)cc3)CCNCC2)cc1 [AT7867]
[1]; [7]
  inhibition of growth at 5 µM: 46.4%
Akt2
  IC50: 17 nM
S6K
  IC50: 85 nM
Akt3
  IC50: 47 nM
Akt1
  IC50: 32 nM

## C#CCC(Cc1cnc2nc(N)nc(N)c2n1)c1ccc(C(=O)N[C@@H](CCC(=O)O)C(=O)O)cc1 (stereo partly shown) [Pralatrexate (Folotyn)]
[1]; [7]
  inhibition of growth at 5 µM: 20.4%
Some cell lines
  IC50: < 300 nM

## CCCNC(=O)Nc1ccc(Oc2ncnc3cc(OC)c(OC)cc23)cc1Cl [KRN 633]
VEGFR2
  IC50: 160 nM
[1]; [7]
  inhibition of growth at 5 µM: 73.8%
PDGFRβ
  IC50: 9850 nM
In vitro
  viability at 72 h: 70.6%
VEGFR1
  IC50: 170 nM
PDGFRα
  IC50: 965 nM

## CC(C)(C)Cn1c(N)nc2ccc(-c3[nH]c(C(C)(C)C)nc3-c3ccc(F)cc3)nc21 [LY2228820]
[1]; [7]
  inhibition of growth at 5 µM: -12.7%
p38 MAPK
  IC50: 7 nM

## CN1CCCCC1Cn1cc(C(=O)c2cc([N+](=O)[O-])ccc2I)c2ccccc21 (stereo not shown) [AM-1241]
[1]; [7]
  inhibition of growth at 5 µM: -8.8%
CB2
  Ki: 3.4 nM

## O=C(NC1CCNCC1)c1[nH]ncc1NC(=O)c1c(Cl)cccc1Cl [AT7519]
[1]; [7]
  inhibition of growth at 5 µM: -11.7%
CDK5/p35
  IC50: 13 nM
CDK1/cyclin B
  IC50: […]
CDK3/Cyclin E
  IC50: 360 nM
CDK4/cyclin D1
  IC50: […]
CDK6/Cyclin D3
  IC50: 170 nM

## C[C@@]1(c2cc(-c3cncnc3)c(F)cc2F)CCSC(N)=N1 [LY2811376]
[1]; [7]
  inhibition of growth at 5 µM: -19.7%
BACE1
  IC50: […]
Aβ secretion
  EC50: ~300 nM

## COc1ccc(S(=O)(=O)N(C(C)=O)c2ccccc2/C=C/c2cc[n+]([O-])cc2)cc1 [HMN-214]
[1]; [7]
  inhibition of growth at 5 µM: -11.6%
[2]
  IC50: 118 nM

## CC(C)CC(=O)Nc1[nH]nc2c1CN(C(=O)C1CCN(C)CC1)C2(C)C [PHA-793887]
[1]; [7]
  inhibition of growth at 5 µM: 0.6%
CDK7
  IC50: 10 nM
CDK5
  IC50: 5 nM
CDK2
  IC50: 8 nM

## CCS(=O)(=O)Nc1ccc2c(c1)/C(=C(/Nc1ccc(CN3CCCCC3)cc1)c1ccccc1)C(=O)N2 [Hesperadin]
[1]; [7]
  inhibition of growth at 5 µM: 66.8%
[3]
  IC50: 40 nM
Aurora B
  IC50: 250 nM

## CCC[C@H](NC(=O)[C@H]1[C@H]2CCC[C@H]2CN1C(=O)[C@@H](NC(=O)[C@@H](NC(=O)c1cnccn1)C1CCCCC1)C(C)(C)C)C(=O)C(=O)NC1CC1 [Telaprevir (VX-950)]
[1]; [7]
  inhibition of growth at 5 µM: 4.4%
[4]
  IC50: 350 nM

## CC(C)C[C@@H](C(=O)N[C@H](C(=O)OC1CCCC1)c1ccccc1)[C@H](O)C(=O)NO [Tosedostat (CHR2797)]
[1]; [7]
  inhibition of growth at 5 µM: 85.6%
PuSA
  IC50: 150 nM
In vitro
  viability at 72 h: 88.8%
Aminopeptidase N
  IC50: 220 nM
LAP
  IC50: 100 nM

## BIX 02188
MEK5
  IC50: 4.3 nM
[5]
  Parasite inhibition (%) mean: 13.7%

## C[C@@H]1CN(CC(=O)Nc2ccc3c(c2)Cc2cccc(-c4cc(=O)cc(N5CCOCC5)o4)c2S3)C[C@H](C)O1 [KU-60019]
[1]; [7]
  inhibition of growth at 5 µM: 2%
ATM
  IC50: 6.3 nM

## CCOc1ccn(-c2ccc(F)cc2)c(=O)c1C(=O)Nc1ccc(Oc2ccnc(N)c2Cl)c(F)c1 [BMS 777607]
[1]; [7]
  inhibition of growth at 5 µM: 80.6%
c-Met
  IC50: 3.9 nM
Ron
  IC50: 1.8 nM
In vitro
  viability at 72 h: 72%
Tyro3
  IC50: 4.3 nM

## COC(=O)N[C@H](C(=O)N1CCC[C@H]1c1ncc(-c2ccc(-c3ccc(-c4cnc([C@@H]5CCCN5C(=O)[C@@H](NC(=O)OC)C(C)C)[nH]4)cc3)cc2)[nH]1)C(C)C [Daclatasvir (BMS-790052)]
[1]; [7]
  inhibition of growth at 5 µM: 3.9%
HCV NS5A
  EC50: 0.009 to 0.05 nM

## CCCCCCCCCCCCc1ccc(S(=O)(=O)Nc2nncs2)cc1 [PHT-427]
[1]; [7]
  inhibition of growth at 5 µM: 35.7%
PDPK1
  Ki: 5200 nM

## Cc1ccc(NC(=O)C2(c3ccc4c(c3)OC(F)(F)O4)CC2)nc1-c1cccc(C(=O)O)c1 [VX-809]
[1]; [7]
  inhibition of growth at 5 µM: 9.4%
CFTR
  EC50: 100 nM

## CCOc1ccc(Cc2cc([C@@H]3O[C@H](CO)[C@@H](O)[C@H](O)[C@H]3O)ccc2Cl)cc1 [Dapagliflozin]
[1]; [8]
  inhibition of growth at 5 µM: 1.9%
hSGLT2
  EC50: 1.1 nM

## CN1CCN(CCOc2cc(OC3CCOCC3)c3c(Nc4c(Cl)ccc5c4OCO5)ncnc3c2)CC1 [Saracatinib (AZD0530)]
[1]; [7]
  inhibition of growth at 5 µM: 32.6%
v-Abl
  IC50: 30 nM

## CCN1CCN(Cc2ccc(-c3cc4c(N[C@H](C)c5ccccc5)ncnc4[nH]3)cc2)CC1 [AEE788 (NVP-AEE788)]
VEGFR2
  IC50: 77 nM
[1]; [7]
  inhibition of growth at 5 µM: -2.1%
Flt
  IC50: 59 nM
HER2/ErbB2
  IC50: 6 nM
EGFR
  IC50: 2 nM

## Cn1cnc2c(F)c(Nc3ccc(Br)cc3Cl)c(C(=O)NOCCO)cc21 [AZD6244 (Selumetinib)]
[1]; [7]
  inhibition of growth at 5 µM: 0.6%
MEK1
  IC50: 14 nM

## CC(=O)Nc1nc(C)c(-c2ccc(Cl)c(S(=O)(=O)NCCO)c2)s1 [PIK-93]
[1]; [8]
  inhibition of growth at 5 µM: 1.5%
PI3Kγ
  IC50: […]

## Nc1cccc2c1C(=O)N(C1CCC(=O)NC1=O)C2=O (stereo not shown) [Pomalidomide]
[1]; [7]
  inhibition of growth at 5 µM: 0.8%
[6]
  IC50: 13 nM

## CCNC(=O)c1cc2c(-c3cc(OCCN4CCCC4)c(Cl)cc3Cl)nc(N)nc2s1 [NVP-BEP800]
[1]; [8]
  inhibition of growth at 5 µM: 0.7%
HSP90β
  IC50: 58 nM
